In patent US20250326753A1, “DUAL CXCR4-BTK INHIBITORS” (X4 Pharmaceuticals, Inc., priority 2022, published 2025):
Read-outs that look alike come from different tables or passages of the source.

Columns and labels:
U-87 MG = assay: Glioblastoma multiforme cell proliferation assay (CellTiter Glo), U-87 MG; format: cell-based; conditions: Homo sapiens
Experimental: (§1) Inhibition of glioblastoma multiforme cell proliferation by compounds of the present invention was evaluated in U-87 MG (ATCC; Cat. No. HTB-14; Lot. No. 5018014) and T98G (ATCC; Cat. No. CRL-1690; Lot. No. 58267513) cell lines. These are adherent cell lines isolated from glioblastoma multiforme/malignant glioma, which express both CXCR4 and BTK (see Zhou et al. 2002 and Yue et al. 2017).
(§2) Cell viability was analyzed with the CellTiter Glo Cell assay kit ([…], Cat. No. G7573, Lot. No. 0000474103), according to the manufacturer's instruction.
(§3) U-87 MG and T98G cells were seeded onto 384-well opaque-walled clear bottom plates (Corning, Cat. No. 3765, Lot. No. 34319047) in EMEM (Invitrogen, Cat. No. 11095-080; Lot. No. 2276656) supplemented with 10% FBS (Invitrogen, Cat. No. 10099-141C, Lot. No. 2145169CP), at a seeding density of 1000 or 1200 cells per well, respectively, and then incubated in 5% CO2 at 37° C. overnight.
(§4) Compounds were prepared as stock solutions of 30 mM in DMSO (Sigma, Cat. No. 276855-1L. Lot. No. SHBL5610). Compounds were added to the cells, with 10 dose points in duplicates, in 3-fold dilution from a top concentration of 30 μM (final DMSO concentration […]), and incubated in 5% CO2 at 37° C. for 96 hr.
(§5) The 384-well plates were equilibrated at room temperature for approximately 30 min. 25 μl of CellTiter-Glo® Reagent was added to each well and mixed for 10 min on an orbital shaker to induce cell lysis. The 384-well plates were incubated at room temperature for 10 min to stabilize luminescent signal. Luminescence was detected on a PerkinElmer EnVision Multimode Plate Reader (measurement time 0.1s) as relative luminescence units (RLU).

Ramos cell line = conditions: read-out: IC50, inhibition of cell proliferation, Chu et al. 2018; cited from earlier work
WM patients = conditions: cited from earlier work
MWCL-1 = assay: Apoptosis assay (annexin V flow cytometry) in Waldenstrom's Macroglobulinemia cells; format: cell-based, human; conditions: Homo sapiens; numeric; read-out: Apoptosis IC50 (μM) in single-mutant WM Cell Lines (MWCL-1)
Experimental: Waldenström's Macroglobulinemia cells (MWCL-1) and the bone marrow stromal cells (BMSCs; HS-27A) were used in this study. The MWCL-1 is a lymphoplasmacytic lymphoma established from the bone marrow aspirate of a patient diagnosed with Waldenström's Macroglobulinemia. It was provided by Dr Stephen M. Ansell (MAYO file number 2021-121; 200 First Street SW, Rochester, Minnesota). This cell line was cultured in RPMI-1640 (Fisher Scientific) containing 10% fetal bovine serum (FBS) (Sigma Aldrich, St Louis, MO), 100U/ml of Penicillin-Streptomycin (Gibco™, ThermoFisher Scientific). The HS-27A bone marrow stromal cells were obtained from ATCC. They were maintained in RPMI 1640 (Fisher Scientific) supplemented with 100U/ml of Penicillin-Streptomycin (Gibco™, ThermoFisher Scientific) and 10% FBS (TakaraBio). Cells were cultured in a 37° C. tissue culture CO2 incubator.
For studies with compounds using a co-culture system of MWCL-1 and BMSCs, BMSCs were cultured in a 96-, 48- or 24-well plates and cultured until the 90% confluence was reached. […] After 1 hour, the MWCL-Icells were added to the BMSC to create a co-culture system. The cells were co-incubated for 72 hours. After incubation time, cell viability, apoptosis, and IgM release were measured.
For studying the effect of compounds on inducing apoptosis of Waldenström Macroglobulinemia cells (MWCL-1). Cells were washed with PBS, resuspended in Annexin V binding buffer (Biolegend), and stained with Alexa Fluor 647 annexin V (Biolegend), Propidium Iodide (BD Pharmigen), and CD45 antibody (Biolegend) for 15 minutes at RT and analyzed by flow cytometry. Data were collected on an CytoFLEX S Flow Cytometer (Beckman Coulter) and analysed with FCS Express Software (De Novo Software). Annexin V positive cells were considered apoptotic.

CDK13/CycK = biological target: T1, CDK13/CycK (Homo sapiens, UniProt Q14004); assay: PanQinase kinase panel: CDK13/CycK; format: biochemical; conditions: read-out: INHIBITORY EFFECT @ 1 uM: CDK13/CycK
T1 construct: purchased Reaction Biology Europe GmbH
T1 sequence (Q14004 whole entry): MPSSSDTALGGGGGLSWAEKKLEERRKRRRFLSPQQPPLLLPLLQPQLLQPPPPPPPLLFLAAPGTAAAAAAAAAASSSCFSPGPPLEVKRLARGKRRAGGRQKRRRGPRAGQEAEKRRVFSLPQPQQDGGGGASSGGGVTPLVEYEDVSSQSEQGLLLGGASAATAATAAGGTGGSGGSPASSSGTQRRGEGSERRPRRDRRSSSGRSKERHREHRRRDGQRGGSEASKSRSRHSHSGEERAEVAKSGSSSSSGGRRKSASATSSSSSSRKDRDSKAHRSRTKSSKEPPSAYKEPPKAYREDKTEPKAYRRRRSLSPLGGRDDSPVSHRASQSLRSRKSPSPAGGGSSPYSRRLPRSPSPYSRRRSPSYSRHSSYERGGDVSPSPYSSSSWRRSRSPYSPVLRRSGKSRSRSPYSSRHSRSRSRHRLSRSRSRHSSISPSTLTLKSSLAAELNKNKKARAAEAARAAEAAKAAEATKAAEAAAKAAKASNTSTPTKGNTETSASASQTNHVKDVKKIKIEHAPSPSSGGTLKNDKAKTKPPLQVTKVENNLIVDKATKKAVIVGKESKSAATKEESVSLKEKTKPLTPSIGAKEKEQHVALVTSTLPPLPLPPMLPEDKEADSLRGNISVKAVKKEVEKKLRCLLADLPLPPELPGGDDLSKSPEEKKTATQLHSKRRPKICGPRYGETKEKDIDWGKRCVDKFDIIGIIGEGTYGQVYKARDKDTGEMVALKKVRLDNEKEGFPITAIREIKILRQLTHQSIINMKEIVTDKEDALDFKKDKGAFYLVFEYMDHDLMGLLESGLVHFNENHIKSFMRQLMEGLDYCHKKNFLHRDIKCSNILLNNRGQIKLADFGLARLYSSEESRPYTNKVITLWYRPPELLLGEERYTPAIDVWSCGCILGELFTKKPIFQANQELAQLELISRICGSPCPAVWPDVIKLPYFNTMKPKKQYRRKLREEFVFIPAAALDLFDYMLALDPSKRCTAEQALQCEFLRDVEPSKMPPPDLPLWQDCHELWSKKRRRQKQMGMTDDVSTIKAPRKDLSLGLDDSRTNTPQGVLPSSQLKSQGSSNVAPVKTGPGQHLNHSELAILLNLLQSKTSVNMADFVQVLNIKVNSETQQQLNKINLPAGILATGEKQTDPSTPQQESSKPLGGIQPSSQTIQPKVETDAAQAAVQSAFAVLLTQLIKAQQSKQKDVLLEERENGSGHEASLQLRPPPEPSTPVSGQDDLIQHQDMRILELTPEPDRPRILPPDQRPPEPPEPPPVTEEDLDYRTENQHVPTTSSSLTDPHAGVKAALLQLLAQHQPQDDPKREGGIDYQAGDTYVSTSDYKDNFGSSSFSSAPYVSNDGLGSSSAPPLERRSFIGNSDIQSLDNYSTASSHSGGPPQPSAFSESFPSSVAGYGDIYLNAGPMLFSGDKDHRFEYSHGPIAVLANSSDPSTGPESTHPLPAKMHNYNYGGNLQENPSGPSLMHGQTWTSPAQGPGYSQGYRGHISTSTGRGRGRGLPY
T1 sequence (O75909 whole entry partner): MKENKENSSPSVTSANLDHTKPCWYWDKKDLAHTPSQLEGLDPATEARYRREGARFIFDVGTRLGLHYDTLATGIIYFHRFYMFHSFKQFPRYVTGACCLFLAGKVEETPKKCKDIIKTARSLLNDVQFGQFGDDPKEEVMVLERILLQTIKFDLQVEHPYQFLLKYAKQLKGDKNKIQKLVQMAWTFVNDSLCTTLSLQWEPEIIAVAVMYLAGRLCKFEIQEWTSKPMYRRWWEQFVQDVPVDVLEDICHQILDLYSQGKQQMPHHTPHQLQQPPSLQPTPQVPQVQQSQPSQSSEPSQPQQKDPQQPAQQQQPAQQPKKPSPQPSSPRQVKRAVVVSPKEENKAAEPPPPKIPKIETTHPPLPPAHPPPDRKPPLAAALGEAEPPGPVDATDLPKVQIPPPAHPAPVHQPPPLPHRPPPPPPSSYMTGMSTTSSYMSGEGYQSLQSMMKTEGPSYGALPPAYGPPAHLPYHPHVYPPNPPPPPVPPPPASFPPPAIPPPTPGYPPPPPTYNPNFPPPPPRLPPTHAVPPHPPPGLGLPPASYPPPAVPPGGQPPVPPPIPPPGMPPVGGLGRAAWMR
Experimental: Screening procedures were performed in accordance with the company's on-line protocol [accessed on-line Mar. 25, 2022 at reaction biology.com/assay-protocol-panqinase]. Inhibitory activity of 50% or greater at concentrations of 1 μM are highlighted for all five compounds tested.
For each kinase, the median value of the cpm of three wells was defined as “low control” (n=3). This value reflects unspecific binding of radioactivity to the plate in the absence of a protein kinase but in the presence of the substrate. Additionally, for each kinase the median value of the cpm of three other wells was taken as the “high control,” i.e. full activity in the absence of any inhibitor (n=3). The difference between high and low control of each enzyme was taken as 100% activity.
As part of the data evaluation the low control of each kinase was subtracted from the high control value as well as from their corresponding “compound values”. The residual activity (in %) for each compound well was calculated by using the following formula: Res. Activity (%)=100×[(signal of compound−low control)/(high control−low control)].

GBM-U251MG = assay: GBM cell proliferation, U251MG (cell-based cancer efficacy assays); conditions: Homo sapiens, U-251; Table 6B
T98G = assay: Glioblastoma multiforme cell proliferation assay (CellTiter Glo), T98G; format: cell-based; conditions: Homo sapiens
Experimental: as §1, §2, §3, §4, §5

C=CC(=O)N1CCC[C@@H](n2nc(-c3ccc(Oc4ccccc4)cc3)c3c(N)ncnc32)C1 [Ibrutinib, ibrutinib, reference compound]
IC50 (U-87 MG; 96 h, read-out: U-87 MG IC50 (uM)): > 30 µM
Emax (U-87 MG; read-out: GBM-U87MG Cell Proliferation Emax %): 52%
IC50 (U-87 MG; read-out: GBM-U87MG Cell Proliferation IC50 uM): 28.5 µM
IC50 (Ramos cell line): 0.87 µM
VGPR (WM patients; WM patients with MYD88 L265P CXCR4 WT): 44.4%
VGPR (WM patients; WM patients with double mutations MYD88 L265P CXCR4 WHIM): 9.5%
IC50 (MWCL-1): 4.2 µM
inhibition at 1 µM (CDK13/CycK): < 50%
Emax (GBM-U251MG): 57%
IC50 (GBM-U251MG): 0.31 µM
IC50 (T98G; 96 h, read-out: T98G IC50 (uM)): > 30 µM
Emax (T98G; read-out: GBM-T-98G Cell Proliferation Emax %): 73%
IC50 (T98G; read-out: GBM-T-98G Cell Proliferation IC50 uM): 24.4 µM
